From patent publication US12110293B2, “Substituted triazolo quinoxaline derivatives” (GRÜNENTHAL GMBH, priority 2018, dated 2024)

The molecules below were run against T1, glucocorticoid receptor (Homo sapiens, UniProt P04150) (assay: Agonistic mode of action on the glucocorticoid receptor (CHO-Gal4/GR luciferase reporter cell line)). Settings: range class observed in the agonistic assay or the antagonistic assay (CHO-Gal4/GR reporter cells); table does not say which mode applies per example.
T1 construct: expressed in transfected cells
T1 sequence (P04150 524-758 limits assumed): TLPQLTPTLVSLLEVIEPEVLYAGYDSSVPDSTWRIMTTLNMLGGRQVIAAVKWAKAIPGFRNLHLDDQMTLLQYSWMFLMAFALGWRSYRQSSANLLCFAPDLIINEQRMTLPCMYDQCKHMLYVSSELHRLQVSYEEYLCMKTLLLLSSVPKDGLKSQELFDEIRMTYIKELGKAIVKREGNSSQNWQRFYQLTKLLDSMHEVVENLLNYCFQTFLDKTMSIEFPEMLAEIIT
Format: cell-based
Procedure, shortened: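 CHO cells stably carrying GAL4 DBD–GR ligand-binding-domain fusion and GAL4-UAS firefly luciferase reporter, 5000 cells/well grown 24 h, then compounds added in Opti-MEM at 8 half-log concentrations from 10 μM to 0.003 μM (0.5% DMSO), quadruplicates. Agonist-induced luminescence read on FLIPR Tetra; EC50 calculated.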

Compound	IC50 or EC50 (agonist or antagonist mode not specified)
Cc1c(-c2cccc3c(C)c[nH]c23)c(OC(F)(F)F)cc2c1-n1c(C)nnc1C(C)(C)N2 [Example 405, 1,4,4,9-Tetramethyl-8-(3-methyl-1H-indol-7-yl)-7-(trifluoromethyloxy)-5H-[1,2,4]triazolo[4,3-a]quinoxaline]	100 to 1000 nM
Cc1nnc2n1-c1c(cc(F)c(-c3cccc4c3ccn4CCNC(=O)OC(C)(C)C)c1F)NC2(C)C [Example 228, N-[2-[4-(7,9-Difluoro-1,4,4-trimethyl-5H-[1,2,4]triazolo[4,3-a]quinoxalin-8-yl)-1H-indol-1-yl]-ethyl]-carbarmic acid tert-butyl ester]	1000 to 15000 nM
Cc1c(-c2cc(F)cc3c(C)c[nH]c23)ccc2c1-n1c(C)nnc1C(C)(C)N2 [Example 452, 8-(5-Fluoro-3-methyl-1H-indol-7-yl)-1,4,4,9-tetramethyl-5H-[1,2,4]triazolo[4,3-a]quinoxaline]	< 100 nM
Cc1c(-c2cc(F)cc3c2cnn3CC(F)F)c(OC(F)(F)F)cc2c1-n1c(C)nnc1C(C)(C)N2 [Example 469, 8-[1-(2,2-Difluoro-ethyl)-6-fluoro-1H-indazol-4-yl]-1,4,4,9-tetramethyl-7-(trifluoromethyloxy)-5H-[1,2,4]triazolo[4,3-a]quinoxaline]	100 to 1000 nM
Cc1cc2c(c(F)c1-c1cc(F)cc3c(C)c[nH]c13)-n1c(C)nnc1C(C)(C)N2 [Example 364, 9-Fluoro-8-(5-fluoro-3-methyl-1H-indol-7-yl)-1,4,4,7-tetramethyl-5H-[1,2,4]triazolo[4,3-a]quinoxaline]	100 to 1000 nM
Cc1nnc2n1-c1c(cc(F)c(-c3cccc4c3ccn4S(C)(=O)=O)c1C(F)F)NC2(C)C [Example 315, 9-(Difluoro-methyl)-7-fluoro-1,4,4-trimethyl-8-(1-methylsulfonyl-1H-indol-4-yl)-5H-[1,2,4]triazolo[4,3-a]quinoxaline]	100 to 1000 nM
Cc1c[nH]c2c(-c3c(F)cc4c(c3F)-n3c(Cc5ccccc5)nnc3C(C)(C)N4)cc(F)cc12 [Example 67, 1-Benzyl-7,9-difluoro-8-(5-fluoro-3-methyl-1H-indol-7-yl)-4,4-dimethyl-5H-[1,2,4]triazolo[4,3-a]quinoxaline]	1000 to 15000 nM
Cc1c(-c2cc(F)cc3c(C)c[nH]c23)c(OC(F)(F)F)cc2c1-n1c(C)nnc1C(C)(C)N2 [Example 406, 8-(5-Fluoro-3-methyl-1H-indol-7-yl)-1,4,4,9-tetramethyl-7-(trifluoromethyloxy)-5H-[1,2,4]triazolo[4,3-a]quinoxaline]	100 to 1000 nM
COc1c(-c2cccc3[nH]ccc23)c(F)cc2c1-n1c(C)nnc1C(C)(C)N2 [Example 286, 7-Fluoro-8-(1H-indol-4-yl)-9-methoxy-1,4,4-trimethyl-5H-[1,2,4]triazolo[4,3-a]quinoxaline]	100 to 1000 nM
Cc1c(-c2cc(F)cc3c(CC(F)(F)F)c[nH]c23)c(F)cc2c1-n1c(C)nnc1C(C)(C)N2 [Example 23, 7-fluoro-8-(5-fluoro-3-(2,2,2-trifluoroethyl)-1H-indol-7-yl)-1,4,4,9-tetramethyl-4,5-dihydro-[1,2,4]triazolo[4,3-a]quinoxaline]	< 100 nM
COc1c(-c2cc(F)cc3c2cnn3S(C)(=O)=O)c(F)cc2c1-n1c(C)nnc1C(C)(C)N2 [Example 339, 7-Fluoro-8-(6-fluoro-1-methylsulfonyl-1H-indazol-4-yl)-9-methoxy-1,4,4-trimethyl-5H-[1,2,4]triazolo[4,3-a]quinoxaline]	100 to 1000 nM
COCCn1ncc2c(-c3c(OC(F)(F)F)cc4c(c3C)-n3c(C)nnc3C(C)(C)N4)cc(F)cc21 [Example 480, 8-[6-Fluoro-1-(2-methoxy-ethyl)-1H-indazol-4-yl]-1,4,4,9-tetramethyl-7-(trifluoromethyloxy)-5H-[1,2,4]triazolo[4,3-a]quinoxaline]	100 to 1000 nM
Cc1nnc2n1-c1c(cc(F)c(-c3cc(F)cc4c3ccn4S(C)(=O)=O)c1C(F)(F)F)NC2(C)C [Example 37, 7-fluoro-8-(6-fluoro-1-(methylsulfonyl)-1H-indol-4-yl)-1,4,4-trimethyl-9-(trifluoromethyl)-4,5-dihydro-[1,2,4]triazolo[4,3-a]quinoxaline]	< 100 nM
CCc1c(-c2cc(F)cc3c(C)c[nH]c23)c(F)cc2c1-n1c(C)nnc1C(C)(C)N2 [Example 47, 9-Ethyl-7-fluoro-8-(5-fluoro-3-methyl-1H-indol-7-yl)-1,4,4-trimethyl-5H-[1,2,4]triazolo[4,3-a]quinoxaline]	< 100 nM
Cc1c(-c2cc(F)cc3c2cnn3S(C)(=O)=O)c(F)cc2c1-n1c(C)nnc1C(C)(C)N2 [Example 279, 7-Fluoro-8-(6-fluoro-1-methylsulfonyl-1H-indazol-4-yl)-1,4,4,9-tetramethyl-5H-[1,2,4]triazolo[4,3-a]quinoxaline]	< 100 nM
Cc1nnc2n1-c1c(cc(F)c(-c3cccc4c3cnn4C3CC3)c1F)NC2(C)C [Example 243, 8-(1-Cyclopropyl-1H-indazol-4-yl)-7,9-difluoro-1,4,4-trimethyl-5H-[1,2,4]triazolo[4,3-a]quinoxaline]	100 to 1000 nM
Cc1cc2c(c(F)c1-c1cc(F)cc3c1ccn3S(C)(=O)=O)-n1c(C)nnc1C(C)(C)N2 [Example 332, 9-Fluoro-8-(6-fluoro-1-methylsulfonyl-1H-indol-4-yl)-1,4,4,7-tetramethyl-5H-[1,2,4] triazolo[4,3-a]quinoxaline]	1000 to 15000 nM
CCc1c[nH]c2c(-c3c(F)cc4c(c3F)-n3c(C)nnc3C(C)(C)N4)cc(F)cc12 [Example 43, 8-(3-ethyl-5-fluoro-1H-indol-7-yl)-7,9-difluoro-1,4,4-trimethyl-4,5-dihydro-[1,2,4]triazolo[4,3-a]quinoxaline]	< 100 nM

The next lines start with the values.

IC50 or EC50 (agonist or antagonist mode not specified)	Compound
1000 to 15000 nM	Cc1nnc2n1-c1c(cc(F)c(-c3cc(F)cc4[nH]c(C#N)cc34)c1F)NC2(C)C [Example 6, 4-(7,9-difluoro-1,4,4-trimethyl-4,5-dihydro-[1,2,4]triazolo[4,3-a]quinoxalin-8-yl)-6-fluoro-1H-indole-2-carbonitrile]
1000 to 15000 nM	Cc1nnc2n1-c1c(cc(OC(F)F)c(-c3cccc4[nH]ccc34)c1F)NC2(C)C [Example 297, 7-(Difluoro-methoxy)-9-fluoro-8-(1H-indol-4-yl)-1,4,4-trimethyl-5H-[1,2,4]triazolo[4,3-a]quinoxaline]
100 to 1000 nM	Cc1c(-c2cccc3c2cnn3S(C)(=O)=O)ccc2c1-n1c(C)nnc1C(C)(C)N2 [Example 457, 1,4,4,9-Tetramethyl-8-(1-methylsulfonyl-1H-indazol-4-yl)-5H-[1,2,4]triazolo[4,3-a] quinoxaline]
100 to 1000 nM	Cc1c(-c2cccc3c2cnn3S(C)(=O)=O)c(F)cc2c1-n1c(C)nnc1C(C)(C)N2 [Example 377, 7-Fluoro-1,4,4,9-tetramethyl-8-(1-methylsulfonyl-1H-indazol-4-yl)-5H-[1,2,4]triazolo[4,3-a]quinoxaline]
100 to 1000 nM	Cc1c[nH]c2c(-c3c(Cl)cc4c(c3F)-n3c(C)nnc3C(C)(C)N4)cccc12 [Example 272, 7-Chloro-9-fluoro-1,4,4-trimethyl-8-(3-methyl-1H-indol-7-yl)-5H-[1,2,4]triazolo[4,3-a]quinoxaline]
100 to 1000 nM	CCc1nnc2n1-c1c(cc(F)c(-c3cccc4cc[nH]c34)c1F)NC2(C)C [Example 11, 1-ethyl-7,9-difluoro-8-(1H-indol-7-yl)-4,4-dimethyl-4,5-dihydro-[1,2,4]triazolo[4,3-a]quinoxaline]
< 100 nM	Cc1c(-c2cc(F)cc3c2ccn3C)c(Cl)cc2c1-n1c(C)nnc1C(C)(C)N2 [Example 519, 7-Chloro-8-(6-fluoro-1-methyl-1H-indol-4-yl)-1,4,4,9-tetramethyl-5H-[1,2,4]triazolo[4,3-a]quinoxaline]
100 to 1000 nM	Cc1nnc2n1-c1c(cc(F)c(-c3cccc4c3cc(C(F)(F)F)n4C3CC3)c1F)NC2(C)C [Example 312, 8-[1-Cyclopropyl-2-(trifluoromethyl)-1H-indol-4-yl]-7,9-difluoro-1,4,4-trimethyl-5H-[1,2,4]triazolo[4,3-a]quinoxaline]
1000 to 15000 nM	COc1cc2c(c(F)c1-c1cc(F)cc3c1ccn3S(C)(=O)=O)-n1c(C)nnc1C(C)(C)N2 [Example 255, 9-Fluoro-8-(6-fluoro-1-methylsulfonyl-1H-indol-4-yl)-7-methoxy-1,4,4-trimethyl-5H-[1,2,4]triazolo[4,3-a]quinoxaline]
100 to 1000 nM	Cc1c(-c2cc(Cl)cc3[nH]ccc23)c(F)cc2c1-n1c(C)nnc1C(C)(C)N2 [Example 513, 8-(6-Chloro-1H-indol-4-yl)-7-fluoro-1,4,4,9-tetramethyl-5H-[1,2,4]triazolo[4,3-a]quinoxaline]
100 to 1000 nM	CCS(=O)(=O)n1ccc2c(-c3c(OC)cc4c(c3C(F)(F)F)-n3c(C)nnc3C(C)(C)N4)cc(F)cc21 [Example 369, 8-[1-(Ethylsulfonyl)-6-fluoro-1H-indol-4-yl]-7-methoxy-1,4,4-trimethyl-9-(trifluoromethyl)-5H-[1,2,4]triazolo[4,3-a]quinoxaline]
